# Data reported in patent US20050192337A1, “Processes and polymorphs of diaryl-indolone galr3 antagonists” (priority 2002, published 2005).
# How the values were obtained:
# Assay type in all cases: physicochemical
# [1] = Stress studies of Compound I (heat stress, XRPD of resulting solid); conditions: for Stability to heat stress: Table 7
# Description: (§1) X-ray powder diffraction (XRPD) analyses were performed using a Shimadzu XRD-6000 X-ray powder diffractometer using Cu Kα radiation. The instrument was equipped with a fine focus X-ray tube. The tube voltage and amperage were set to 40 kV and 40 mA, respectively. The divergence and scattering slits were set at 1° and the receiving slit was set at 0.15 mm. Diffracted radiation was detected by a NaI scintillation detector. A theta-two theta continuous scan at 3°/min (0.4 sec/0.02° step) from 2.5 to 40° 2θ was used. A silicon standard was analyzed to check the instrument alignment. Data were collected and analyzed using XRD-6000 v. 4.1. Samples were prepared for analysis by placing them in a silicon sample holder or aluminum holder with silicon insert. X-ray powder diffraction (XRPD) analyses were also performed using an Inel XRG-3000 diffractometer equipped with a CPS (Curved Position Sensitive) detector with a 2θ range of 120°. Real time data were collected using Cu-Kα radiation starting at approximately 4° 2θ at a resolution of 0.03° 2θ. The tube voltage and amperage were set to 40 kV and 30 mA, respectively. The monochromator slit was set at 5 mm by 80 μm. […] Samples were prepared for analysis by packing them into thin-walled glass capillaries. Each capillary was mounted onto a goniometer head that is motorized to permit spinning of the capillary during data acquisition. The samples were analyzed for 5 min. Instrument calibration was performed using a silicon reference standard.
# (§2) All three polymorphs are also non-hygroscopic, as indicated by the data in Table 8.
# [2] = Slurry experiments on Compound I crystalline forms (XRPD); conditions: for Conversion upon stirring as a slurry in an organic solvent: a few hours to several days, Tables 9 and 10
# Description: as §1, §2
# Form I can be obtained in a straightforward fashion by stirring a slurry of any solid form of Compound I, and particularly Form II or III, in an organic solvent in which Compound I is partially soluble, for several hours until the material converts completely to Form I. Formation of Form I can be analyzed through DSC or, preferably, XRPD analysis. In one embodiment of the invention, a slurry of solid Compound I in an organic solvent is generated by cooling a hot, saturated solution of Compound I in an organic solvent, allowing crystals to form, then stirring the resulting slurry for several hours or a few days until the solid material converts substantially or completely to Form I. In a preferred embodiment, the hot, saturated solution of Compound I is generated in situ in the one-pot synthetic process described above. Form I can also be prepared by slurrying for several hours Compound I, Form II in a saturated methanol solution or in an appropriate solvent.
# [3] = Moisture sorption/desorption (moisture balance) of Compound I forms
# [4] = Interconversion experiments of Compound I (slurry of mixed forms, XRPD); conditions: 25° C.
# Description: as §1, with “Each capillary was mounted onto a goniometer head that is motorized to permit spinning of the capillary during data acquisition.” left out, “Instrument calibration was performed using a silicon reference standard.” left out
# [5] = Differential scanning calorimetry, relative stability of forms on heating; conditions: high temperatures, DSC 1° C./min
# Description: Differential scanning calorimetry (DSC) was performed using a TA Instruments differential scanning calorimeter 2920. The sample was placed into an aluminum DSC pan, and the weight accurately recorded. The pan was covered with a lid and left uncrimped. Each sample was equilibrated at 25° C. and heated under a nitrogen purge at a rate of 10 or 20° C./min, up to a final temperature of 270° C. or 350° C. Samples were also heated at 1 or 5° C./min up to 150° C.
"Result (XRPD form after stress) ([1]; 80 C., 4 days)",Stability to heat stress [1],Conversion upon stirring as a slurry in an organic solvent [2],Hygroscopicity [3],Moisture Balance Results: weight loss at 5% RH ([3]; 5% RH),Moisture Balance Results: total weight gain at 95% RH [3],"XRPD Results after slurry ([2]; MeOH, ambient, 11 d)",SMILES,also measured
III (SS),relatively stable to heat stress,convert to Form I,nonhygroscopic,"<0.1% weight loss at 5% RH,",–,–,"O=C1C(=Nc2cccc(C(F)(F)F)c2)c2ccccc2N1c1ccccc1 (racemic) [Form III, 1-phenyl-3-[[3-(trifluoromethyl)phenyl]imino]-1H-indol-2-one]","Result (XRPD form after stress) ([1]; 60 C., 4 days): III (SS); Result (XRPD form after stress) ([1]; 70 C., 4 days): III (SS); Moisture Balance Results: total weight gain at 95% RH ([3]; listed as III): <0.1% total weight gain at"
–,–,–,–,–,0.3% total weight gain at,–,"O=C1C(=Nc2cccc(C(F)(F)F)c2)c2ccccc2N1c1ccccc1 (racemic) [amorphous, 1-phenyl-3-[[3-(trifluoromethyl)phenyl]imino]-1H-indol-2-one]","Result (XRPD form after stress) ([1]; 60 C./17 hours): III (LC); Moisture Balance Results: weight gain at 5% RH ([3]; 5% RH): <0.1% weight gain at 5% RH,; XRPD Results on solid after moisture balance run ([3]; after moisture balance run): amorphous"
–,–,–,–,"<0.1% weight loss at 5% RH,",<0.1% total weight gain at,I (PO),"O=C1/C(=N\c2cccc(C(F)(F)F)c2)c2ccccc2N1c1ccccc1 [Compound I, 1-phenyl-3-[[3-(trifluoromethyl)phenyl]imino]-1H-indol-2-one]",–
–,relatively stable to heat stress,remains unchanged,nonhygroscopic,–,–,–,"O=C1/C(=N\c2cccc(C(F)(F)F)c2)c2ccccc2N1c1ccccc1 [Form I, 1-phenyl-3-[[3-(trifluoromethyl)phenyl]imino]-1H-indol-2-one]",Relative stability of forms [4]: more stable than either Form II or III
II (PO) + peak@5° 2θ,relatively stable to heat stress,convert to Form I,–,"<0.1% weight loss at 5% RH,",<0.1% total weight gain at,I (PO),"O=C1/C(=N\c2cccc(C(F)(F)F)c2)c2ccccc2N1c1ccccc1 [Form II, 1-phenyl-3-[[3-(trifluoromethyl)phenyl]imino]-1H-indol-2-one]","XRPD Results after slurry ([2]; Experiment 3, MeOH, 25° C., 1 hour): II + I (minor); XRPD Results after slurry ([2]; Experiment 4, MeOH, 25° C., 1 hour): I + II; XRPD Results after slurry ([2]; Experiment 4, MeOH, 25° C., 1 hour 20 min): I + II; XRPD Results after slurry ([2]; Experiment 4, MeOH, 25° C., 1 hour 40 min): I + II (minor); Relative stability of forms [5]: more stable than Form I"
